Here are results for seven compounds from article PMC11588265, “Auto QSAR-based active learning docking for hit identification of potential inhibitors of Plasmodium falciparum Hsp90 as antimalarial agents” (PLOS ONE, 2024).

In one assay the target is PfHsp90-NTD (Plasmodium falciparum, UniProt Q8IC05). As to the kind of experiment: Surface plasmon resonance (MP-SPR) binding to immobilized PfHsp90-NTD. As to the method: The NTD of PfHsp90 was expressed and purified as described in [29] and 20μg/ml of the protein was used to study the binding affinities of selected ligands using BioNavis Navi 420A ILVES multi-parametric surface plasmon resonance (MP-SPR) system (BioNavis, Finland) as previously described. Briefly, PfHsp90-NTD was immobilized to a Carboxymethyl dextran coated sensor slide (BioNavis SPR102- CMD-3D). The sensor slide was activated with 0.1 M EDC/0.05 M NHS. At pH 5, PfHsp90-NTD suspended in 5 mM of sodium acetate was immobilized on one channel of the 3 CMD chip. 1 M ethanolamine HCl was used to deactivate the chip by removing excess NHS = EDC, and the sensor cleaned with NaCl/NaOH unspecific binding molecules. Varying concentrations (0-2000/5000 nM) of compounds FTN-T2 and FTN-T5 were injected and introduced to the flow cell, allowing binding to the surface. Data Viewer (BioNavis, Finland) and Trace Drawer software version 1.8 (Ridgeview instruments, Uppsala, Sweden) were used to process and analyze the steady-state equilibrium constant data and estimate the binding affinities.
On the technique in general: SPR reads the build-up and loss of mass on a sensor chip optically.

In a further assay the test system is P. falciparum 3D7. To be noted: cited from earlier work.
A further assay concerns HepG2. More on the design: method as in Everson et al., 2021. Conditions: ref Everson et al., 2021, cited from earlier work.
For assay [1], the system named is human fibroblast cell line. More on the design: method as in Everson et al., 2021. To be noted: ref Everson et al., 2021, cited from earlier work.
Assay [2] has as its system Chinese Hamster Ovarian (CHO) cells. As to the kind of experiment: In vitro cytotoxicity, MTT assay, CHO cells. It is filed as cell-based. To be noted: for IC50: CHO cells, MTT, 48 h, read-out: In vitro IC50 Mammalian cells; for Mammalian cells (SI): selectivity index, CHO vs PfNF54. On the procedure: (§1) Selectivity of the compounds for the parasites was determined using two cytotoxicity assays both of which were conducted at the H3D Centre. Compounds were screened against the mammalian cells, Chinese Hamster Ovarian (CHO) and hepatocellular carcinoma (HepG2), using the 3-(4,5-dimethylthiazol-2-yl)-2,5-diphenyltetrazoliumbromide (MTT) assay. Cells were plated to a density of 10^5 cells/well in 96-well plates and allowed to attach for 24h. After that compounds were added at various concentrations from 50μM to 16nM and the cells incubated for a further 48h. Emetine was used as the control. After that MTT was added and plates were read 4h later. ‘‘Survival” was plotted against concentration and the IC50-values were obtained using a non-linear dose-response curve fitting analysis via the Dotmatics software platform.

The subject of assay [3] is P. falciparum NF54 strain. As to the kind of experiment: In vitro anti-Plasmodium assay (parasite lactate dehydrogenase). It is filed as cell-based. To be noted: P. falciparum NF54 drug-sensitive strain, read-out: In vitro IC50 PfNF54. On the procedure: In vitro anti-Plasmodial assays were conducted at the H3D testing centre at the University of Cape Town. All 15 commercially available compounds were evaluated for anti-Plasmodium activity using a parasite lactate dehydrogenase assay as a marker for parasite survival, as previously described by. Briefly, the parasites were synchronized at the ring stage using d-sorbitol in water. Approximately 2 mg/mL stock solutions of reference drugs, chloroquine and artesunate, were prepared in water and DMSO respectively then stored in -20°C. Test compounds and reference drugs were serially diluted to give 10 concentrations with a final volume of 100 μL in each well. Parasites were incubated in the presence of the compounds at 37°C under hypoxic conditions (4% CO2 and 3% O2 in N2) for 72 h. The absorbance was measured at 620 nm on a microplate reader. Survival was plotted against concentration and the IC50-values were obtained using a non-linear dose-response curve fitting analysis via the Dotmatics software platform.

For assay [4], the system named is hepatocellular carcinoma (HepG2). As to the kind of experiment: In vitro cytotoxicity, MTT assay, HepG2 cells. Conditions: for IC50: HepG2 cells, MTT, 48 h; for HepG2 (SI): selectivity index, HepG2 vs PfNF54. It is filed as cell-based, human. On the procedure:
as §1
For orientation: Formazan colour is commonly taken as a measure of viable cells.

The subject of the next assay is Plasmodium. Conditions: known inhibitor; ref (11); read-out: anti-Plasmodium IC50; cited from earlier work.
[5] abbreviates: P. falciparum 3D7, chloroquine-sensitive strain, ref Everson et al., 2021, read-out: In vitro IC50 Pf3D7.
The mark [6] stands for this setting: Plasmodium falciparum, NF54, 72 h.

Molecules are shown by their SMILES. Where “and” joins values, the source holds several entries; their conditions need not be identical. Equal entries are not always repeated. Where two headings read alike, the source gives them in different places.

Chain of PfHsp90-NTD (Q8IC05 entry or part of it): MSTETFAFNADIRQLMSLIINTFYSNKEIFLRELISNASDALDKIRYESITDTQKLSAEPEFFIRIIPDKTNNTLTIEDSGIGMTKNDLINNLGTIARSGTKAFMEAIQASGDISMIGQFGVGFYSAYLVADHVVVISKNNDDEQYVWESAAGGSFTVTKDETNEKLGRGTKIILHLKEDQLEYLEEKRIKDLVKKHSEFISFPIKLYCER

Usually Kd stands for the concentration at which binding is half-saturated. In the case of `COc1ccc2c(c1)[nH]c1c(C)nccc12` [Harmine, reference compound], the dissociation constant (Kd) on PfHsp90-NTD (equilibrium constant denoting affinity KD, SPR, immobilized PfHsp90-NTD) was 0.0182 µM. Besides, in the assay on P. falciparum 3D7 (P. falciparum, ref Shahinas et al., 2010, read-out: In vitro IC50 PfNF54/ Pf3D7), the IC50 was 0.05 µM.
On to `O=C(N[C@H]1CCc2ccccc21)C1CCN(c2ncccc2-c2nc(-c3ccccc3)no2)CC1` [Compound 10], for which the IC50 in the assay on HepG2 (HepG2, read-out: In vitro IC50 HepG2) was above 24 µM; in assay [1] (human fibroblast cell line, read-out: In vitro IC50 Mammalian cells) it was above 24 µM; in the assay with P. falciparum 3D7 (setting [5]), 1.11 ± 0.97 µM. In the assay on HepG2 (selectivity index), the “HepG2 (SI)” value is recorded as above 21. Besides, the “Mammalian cells (SI)” value in assay [1] (selectivity index) is recorded as above 21.
Take `O=C(NCc1ccc2c(c1)OCO2)C1CCN(c2ncnc3onc(-c4cccc(F)c4)c23)CC1` [Compound 7]: the IC50 in the assay on P. falciparum 3D7 (setting [5]) was 0.98 ± 0.654 µM.
As to `Nc1nc2c(ncn2[C@H]2C[C@H](F)[C@@H](CO)O2)c(=O)[nH]1` [FTN-T9], the IC50 in assay [2] was above 50 µM; in assay [3] (72 h), 4.86 ± 1.14 µM; in assay [4] it was above 50 µM. In addition, the “Mammalian cells (SI)” value in assay [2] is reported as above 10. In addition, the “HepG2 (SI)” value in assay [4] is on record as above 10.
Consider `Nc1ncnc2c1nc(Br)n2[C@@H]1O[C@H](CO)[C@@H](O)[C@H]1O` [FTN-T2], for which the results for the IC50 in assay [2] (Cricetulus griseus), in assay [3] (setting [6]) and in assay [4] (Homo sapiens) were above 50 µM, 4.49 ± 1.51 µM and 1.5 µM, respectively. Besides, the Kd at PfHsp90-NTD (SPR, immobilized PfHsp90-NTD, read-out: equilibrium constant denoting affinity KD) is 0.007 µM and 0.00711 µM. In addition, in assay [4], the “HepG2 (SI)” value came out at 0.
With `Cn1c(=O)ccn([C@@H]2O[C@H](CO)[C@@H](O)[C@H]2O)c1=O` [FTN-T5], the “average SI” value in assay [2] (CHO and HepG2 cell lines) is at least 30. For the same compound, the IC50 in assay [2] (Cricetulus griseus) was above 50 µM; in assay [3] (72 h) it was 1.44 ± 0.5 µM; in assay [3] (setting [6]), below 1.5 µM; in assay [4] (Homo sapiens), 42.3 µM. Further, the “Mammalian cells (SI)” value in assay [2] is recorded as above 35. For the same compound, the Kd on PfHsp90-NTD (read-out: equilibrium constant denoting affinity KD) is 0.0199 µM and 0.019 µM. For the same compound, the “selectivity index (SI)” value in assay [4] (HepG2/CHO cells vs PfNF54) is listed as at least 29. In assay [4], the “HepG2 (SI)” value is recorded as 29.
For `COC1=C2C[C@@H](C)C[C@H](OC)[C@H](O)[C@@H](C)/C=C(\C)[C@H](OC(N)=O)[C@@H](OC)/C=C\C=C(/C)C(=O)NC(=CC1=O)C2=O` [Geldanamycin, geldanamycin], the IC50 with Plasmodium was 0.02 µM.
